Measurements from ChEMBL document CHEMBL5143564, “PES derivative PESA is a potent tool to globally profile cellular targets of PES” (Bioorg Med Chem Lett, 2022).
Activity calls are given as the source filed them.

Assays:
[1] = target: T1, Thioredoxin-dependent peroxide reductase, mitochondrial (Homo sapiens) (UniProt P30048); experiment: Binding affinity to PRDX3 in human DOHH-2 cells by MS analysis; type: cell-based
T1 sequence (whole entry): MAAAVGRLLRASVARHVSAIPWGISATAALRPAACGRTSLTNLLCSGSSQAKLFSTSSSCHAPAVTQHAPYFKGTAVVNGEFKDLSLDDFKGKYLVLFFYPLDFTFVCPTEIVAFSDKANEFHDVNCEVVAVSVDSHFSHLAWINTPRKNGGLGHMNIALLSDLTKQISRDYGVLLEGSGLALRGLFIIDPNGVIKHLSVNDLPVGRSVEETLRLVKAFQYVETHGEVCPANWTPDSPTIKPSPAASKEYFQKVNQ

[2] = species on record: Homo sapiens; experiment: Binding affinity to ADP-bound full-length human HSP70 by TAMRA-azide based fluorescence imaging analysis; conditions: dose 0.2-20 µM, DDE = dose-dependent effect
[3] = target: T2, Protein disulfide-isomerase A4 (Homo sapiens) (UniProt P13667); experiment: Binding affinity to PDIA4 in human MDA-MB-453 cells measured after 6 hrs by pull-down assay; type: cell-based; conditions: dose <= 20.0 µM, DDE = dose-dependent effect
T2 sequence (whole entry): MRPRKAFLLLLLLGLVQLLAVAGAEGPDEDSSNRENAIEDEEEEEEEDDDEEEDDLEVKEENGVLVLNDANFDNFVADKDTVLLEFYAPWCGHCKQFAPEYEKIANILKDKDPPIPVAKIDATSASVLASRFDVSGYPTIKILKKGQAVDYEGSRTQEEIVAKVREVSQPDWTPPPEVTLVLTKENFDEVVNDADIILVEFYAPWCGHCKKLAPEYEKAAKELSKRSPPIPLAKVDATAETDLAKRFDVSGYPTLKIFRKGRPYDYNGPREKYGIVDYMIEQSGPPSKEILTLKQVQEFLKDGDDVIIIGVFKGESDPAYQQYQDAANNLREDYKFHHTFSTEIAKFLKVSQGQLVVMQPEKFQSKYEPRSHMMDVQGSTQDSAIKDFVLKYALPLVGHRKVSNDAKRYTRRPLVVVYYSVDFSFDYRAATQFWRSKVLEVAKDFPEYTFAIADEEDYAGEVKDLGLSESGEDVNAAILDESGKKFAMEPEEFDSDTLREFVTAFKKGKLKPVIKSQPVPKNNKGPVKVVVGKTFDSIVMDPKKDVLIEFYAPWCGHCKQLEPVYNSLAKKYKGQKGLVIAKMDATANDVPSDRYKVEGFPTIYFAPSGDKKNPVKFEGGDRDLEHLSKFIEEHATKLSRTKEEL

[4] = target: T3, D-3-phosphoglycerate dehydrogenase (Homo sapiens) (UniProt O43175); experiment: Binding affinity to D-3-phosphoglycerate dehydrogenase in human DOHH-2 cells by MS analysis; type: cell-based
T3 sequence (whole entry): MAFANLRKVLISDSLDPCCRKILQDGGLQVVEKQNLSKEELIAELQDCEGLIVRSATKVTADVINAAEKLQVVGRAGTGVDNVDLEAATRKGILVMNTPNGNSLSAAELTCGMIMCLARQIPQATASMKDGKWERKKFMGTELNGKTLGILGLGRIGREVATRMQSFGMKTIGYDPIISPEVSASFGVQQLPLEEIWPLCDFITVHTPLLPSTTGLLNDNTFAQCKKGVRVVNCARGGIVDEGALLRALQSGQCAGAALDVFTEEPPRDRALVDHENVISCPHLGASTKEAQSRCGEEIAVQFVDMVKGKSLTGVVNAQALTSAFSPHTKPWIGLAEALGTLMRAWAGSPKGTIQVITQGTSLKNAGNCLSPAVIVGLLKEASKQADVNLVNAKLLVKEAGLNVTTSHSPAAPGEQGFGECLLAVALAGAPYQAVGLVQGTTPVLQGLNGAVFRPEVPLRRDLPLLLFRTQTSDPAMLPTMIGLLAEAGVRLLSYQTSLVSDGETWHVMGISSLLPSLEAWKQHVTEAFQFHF

[5] = species on record: Homo sapiens; experiment: Binding affinity to human HSP70 SBDalpha domain (537 to 610 residues) C574S mutant assessed as Cys603 adduct formation by size exclusion chromatography
[6] = target: Tubulin beta (Homo sapiens) (UniProt P68371+Q9H4B7+Q13509+P04350+Q3ZCM7+P07437+Q13885+Q9BVA1+Q9BUF5+A6NNZ2); experiment: Binding affinity to beta-tubulin in human MDA-MB-453 cells measured after 6 hrs by pull-down assay; type: cell-based; conditions: dose <= 20.0 µM, DDE = dose-dependent effect
[7] = tested on: DOHH-2; experiment: Induction of apoptosis in human DOHH-2 cells assessed as increase in cleaved PARP expression at 0.5 to 8 uM measured after 24 hrs by Western blot analysis; type: functional, cell-based; conditions: dose 0.5-8 µM
[8] = target: T4, Peroxiredoxin-1 (Homo sapiens) (UniProt Q06830); experiment: Binding affinity to PRDX1 in human DOHH-2 cells measured after 6 hrs by pull-down assay; type: cell-based; conditions: DDE = dose-dependent effect
T4 sequence (whole entry): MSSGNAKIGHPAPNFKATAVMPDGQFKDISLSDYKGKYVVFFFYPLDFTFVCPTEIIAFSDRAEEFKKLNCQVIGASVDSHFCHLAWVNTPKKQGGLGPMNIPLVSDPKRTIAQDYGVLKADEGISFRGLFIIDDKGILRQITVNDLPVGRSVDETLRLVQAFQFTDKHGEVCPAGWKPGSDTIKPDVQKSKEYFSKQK

[9] = tested on: DOHH-2; experiment: Induction of apoptosis in human DOHH-2 cells assessed as increase in cleaved caspase-3 expression at 0.5 to 8 uM measured after 24 hrs by Western blot analysis; type: functional, cell-based; conditions: dose 0.5-8 µM
[10] = target: T5, Peroxiredoxin-2 (Homo sapiens) (UniProt P32119); experiment: Binding affinity to PRDX2 in human DOHH-2 cells measured after 6 hrs by pull-down assay; type: cell-based; conditions: DDE = dose-dependent effect
T5 sequence (whole entry): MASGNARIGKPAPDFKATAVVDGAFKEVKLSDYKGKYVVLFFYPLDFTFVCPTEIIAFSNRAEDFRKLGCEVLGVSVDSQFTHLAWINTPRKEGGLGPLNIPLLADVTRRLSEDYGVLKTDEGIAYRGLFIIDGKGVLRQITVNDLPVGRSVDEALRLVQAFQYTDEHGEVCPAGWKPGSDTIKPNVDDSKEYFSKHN

[11] = tested on: DOHH-2; experiment: Induction of autophagy in human DOHH-2 cells assessed as reduction in p62 expression at 0.5 to 8 uM measured after 24 hrs by Western blot analysis; type: functional, cell-based; conditions: dose 0.5-8 µM
[12] = species on record: Homo sapiens; experiment: Binding affinity to ADP-bound full-length human HSP70 assessed as Cys603 adduct formation at SBDalpha domain by LC-MS/MS analysis
[13] = tested on: DOHH-2; experiment: Induction of apoptosis in human DOHH-2 cells assessed as increase in cleaved caspase-3 expression at 8 uM measured after 4 to 24 hrs by Western blot analysis; type: functional, cell-based; conditions: time 4-24 hrs
[14] = target: T3, D-3-phosphoglycerate dehydrogenase (Homo sapiens); experiment: Binding affinity to D-3-phosphoglycerate dehydrogenase in human DOHH-2 cells measured after 6 hrs by pull-down assay; type: cell-based; conditions: DDE = dose-dependent effect

Measured: Activity

C#Cc1cccc(C#CS(N)(=O)=O)c1
active: [1] | [2] Dde | [3] Dde | [4] | [5] | [6] Dde | [7] | [8] Dde | [9] | [10] Dde | [11] | [12] | [13] | [14] Dde
